Patent US5945433A, “Quinoline derivatives containing a diol as leukotriene antagonists” (Leo Pharmaceutical Products, Ltd. A/S, priority 1995, dated 1999)
Values joined by “and” are separate entries in the source; they are usually repeats but may differ in a detail not shown here. Equal entries are not always repeated. Where two headings read alike, the source gives them in different places.

Experiments:
[1] = molecular target: T1, LTD4 receptor (Cavia porcellus, UniProt Q2NNR5); experiment: Receptor binding: direct competition with [^3 H]LTD4 on guinea-pig lung membranes; details: mean ± SD (n) or individual values
T1 construct: from tissue; host or cells: guinea-pig lung membranes
T1 sequence (Q2NNR5 1-340): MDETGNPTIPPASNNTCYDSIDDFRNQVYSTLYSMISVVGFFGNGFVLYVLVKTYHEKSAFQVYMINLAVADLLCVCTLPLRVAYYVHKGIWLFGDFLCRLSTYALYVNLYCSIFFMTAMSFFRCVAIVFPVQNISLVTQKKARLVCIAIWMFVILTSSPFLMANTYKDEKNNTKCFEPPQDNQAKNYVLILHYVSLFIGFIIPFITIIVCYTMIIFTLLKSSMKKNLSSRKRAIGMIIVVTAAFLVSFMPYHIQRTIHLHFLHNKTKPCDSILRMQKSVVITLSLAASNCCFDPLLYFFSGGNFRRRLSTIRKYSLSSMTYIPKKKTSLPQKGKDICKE
Procedure: It is of importance to investigate the receptor binding properties of leukotriene antagonists in relation to their inhibition of smooth muscle contraction. Receptor binding studies may be performed with guinea-pig lung membranes in a direct competition assay between a leukotrien antagonist and [^3 H]LTD4 for binding to the LTD4 receptor^3,4. A pIC50 value is determined as the negative logarithm of the molar concentration of antagonist inhibiting [^3 H]LTD4 binding by 50%. The pIC50 values for the compounds of the present invention are equal to or higher than those for the reference compound SR3040^5 (see Table I)

[2] = tested on: LTD4-induced bronchoconstriction; experiment: LTD4-induced bronchoconstriction in anaesthetized guinea-pigs; type: in vivo, guinea-pig; details: Cavia porcellus
Procedure: The leukotriene antagonistic effect was tested in vivo on LTD4 -induced bronchoconstriction in anaesthetized guinea-pigs^3. […] The ED50 values represent the dose inhibiting the leukotriene induced bronchoconstriction by 50%. The ED50 values were calculated by regression analysis of 2-3 doses.

[3] = absence of albumin, read-out: pIC50, binding of [^3 H]LTD4, absence of albumin (converted)
[4] = presence of 0.1% human serum albumin, read-out: pIC50, binding of [^3 H]LTD4, presence of albumin (converted)
[5] = iv, 10 min, i.v., 10 min before bronchoconstriction
[6] = po, 4 h before bronchoconstriction
[7] = po, 24 h before bronchoconstriction
[8] = po, 48 h before bronchoconstriction

| IC50 [1, 3] | IC50 [1, 4] | Compound | ED50 [2, 5] [mg/kg] | ED50 [2, 6] [mg/kg] | ED50 [2, 7] [mg/kg] | ED50 [2, 8] [mg/kg] | ED50 ([2]; po, 72 h before bronchoconstriction) [mg/kg] |
| --- | --- | --- | --- | --- | --- | --- | --- |
| 1 nM | 0.501 nM | OC[C@@H](O)[C@@H](Nc1cccc(/C=C/c2ccc3cc(F)c(F)cc3n2)c1)c1ccccc1 [Example 8] | 0.18 | – | 14.9 | > 30 | – |
| 1.58 nM | 0.794 nM | OC[C@H](O)[C@H](Nc1cccc(/C=C/c2ccc3cc(F)c(F)cc3n2)c1)c1ccccc1 [Example 7, (+)-2R,3R-E-3-N-[3-2-(6,7-difluoroquinolin-2-yl)ethenyl]-phenylamino-3-phenyl-1,2-propandiol] | 0.058 | 1.64 | 4.64 | 9.73 | > 30 |

More lines, now with the values behind:

| Compound | IC50 [1, 3] | IC50 [1, 4] | ED50 [2, 5] [mg/kg] | ED50 [2, 6] [mg/kg] | ED50 [2, 7] [mg/kg] | ED50 [2, 8] [mg/kg] | ED50 ([2]; po, 72 h before bronchoconstriction) [mg/kg] |
| --- | --- | --- | --- | --- | --- | --- | --- |
| OC[C@@H](O)[C@@H](Nc1cccc(/C=C/c2ccc3ccc(F)cc3n2)c1)c1ccccc1 [Example 6] | 1.58 nM | 1.58 nM | – | – | – | – | – |
| OC[C@H](O)[C@H](Nc1cccc(/C=C/c2ccc3ccc(Cl)cc3n2)c1)c1ccccc1 [Example 3] | 5.01 nM and 6.31 nM | 3.98 nM and 2.51 nM | 0.3 | 0.956 | 20.3 | – | – |
| OC[C@H](O)[C@H](Nc1cccc(/C=C/c2ccc3ccc(F)cc3n2)c1)c1ccccc1 [Example 5] | 3.98 nM | 2.51 nM | – | – | – | – | – |
| OC[C@@H](O)[C@@H](Nc1cccc(/C=C/c2ccc3ccc(Cl)cc3n2)c1)c1ccccc1 [Example 4] | 3.98 nM | 1.26 nM and 2 nM | 0.35 | 3.63 | 8.66 | > 30 | – |
